Test systems include MDA-MB-435; T47D; MDA-MB-231; 786-0; DLD-1; KM-20L2; SNB-78; HOP-18; RXF 631.
Common to all, as to assay: NCI-60 cell line screen, 48 h

We go through 35 molecules from ChEMBL document CHEMBL1201862, “PubChem BioAssay data set” (2004).

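Growth conditions: 96-well plates. Treatment: test compound, 48 hours, 5 concentrations. Analysis: linear interpolation between bracketing concentrations; unreached endpoints set to highest concentration. The concentration for 50% growth inhibition is given as GI50.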 The source made the active and inactive calls. No stated cut-off is given here; in the data, active = GI50 up to about 1.1 µM and inactive = higher.

Turning to `Cc1ccc(/N=N/C(=N\NC(=O)c2ccc(C)cc2)c2ccc(N(CCC#N)CCC#N)cc2C)cc1`, the results for the GI50 with MDA-MB-435, in the experiment on T47D and in the experiment with MDA-MB-231 were 21 µM (inactive), 49.7 µM (inactive) and 57.9 µM (inactive), respectively.

Consider `CCOC(=O)c1c(N=C(S)Nc2ccccc2)sc2c1CCN(C)C2`, for which the GI50 in the experiment with T47D, in the experiment with 786-0 and in the experiment with MDA-MB-231 was > 100 µM (inactive) each time.

`O=C1c2ccccc2C(=O)N1/N=C1/SC(=N\c2ccccc2)/C(=N/c2ccccc2)N1c1ccccc1`: the GI50 was > 100 µM (inactive) in the experiment with MDA-MB-435, > 100 µM (inactive) in the experiment with T47D, 11.4 µM (inactive) in the experiment with 786-0 and > 10 µM (inactive) in the experiment on MDA-MB-231.

As for `N#C/C(=C1/Sc2c(nc[nH]c2=O)N1c1ccccc1)c1nc2ccccc2[nH]1`, the GI50 with DLD-1, with KM-20L2 and in the experiment on SNB-78 was > 100 µM (inactive) in each case.

As to `Cn1cc(NC(=O)[C@H]2CCC(N)=N2)cc1C(=O)NCCC(=N)N`, the GI50 with DLD-1, in the experiment with 786-0, in the experiment on KM-20L2, in the experiment on HOP-18 and with SNB-78 was > 100 µM (inactive) in each case.

Regarding `COC(=O)C(=O)Cc1nc2ccccc2o1`, the GI50 in the experiment with RXF 631, with DLD-1 and in the experiment with SNB-78 was > 100 µM (inactive) throughout.

With `CCOC(=O)NC(OCc1ccccc1)(C(=O)OC)C(F)(F)F` (stereo unspecified), the GI50 with MDA-MB-435, with T47D and in the experiment with MDA-MB-231 was > 100 µM (inactive) throughout.

For `COC(=O)C1=C(\c2ccccc2)c2ccccc2C(=O)N(C2CCCCC2)/C=C\1`, the GI50 in the experiment on MDA-MB-435 was 17.9 µM (inactive); in the experiment with 786-0, 34.6 µM (inactive); in the experiment on MDA-MB-231, 17.2 µM (inactive).

Take `CC1CC/C(=C\c2ccc(Cl)cc2)C(=O)/C1=C\c1ccc(Cl)cc1` (stereo unspecified): the GI50 in the experiment on MDA-MB-435 was 36.8 µM (inactive); in the experiment on T47D it was 58.9 µM (inactive); in the experiment on 786-0, 34.1 µM (inactive); in the experiment with MDA-MB-231, 28.4 µM (inactive).

On to `O=C(N/N=C/c1ccccc1)c1c(F)c(F)c(F)c(F)c1F`, for which the GI50 in the experiment on MDA-MB-435 was 37.8 µM (inactive); in the experiment on T47D, > 100 µM (inactive); with MDA-MB-231, > 100 µM (inactive).

For `CN(C)CCC(O)(c1ccccc1)C(O)(CCN(C)C)c1ccccc1` (stereo unspecified), the GI50 in the experiment on DLD-1 was > 100 µM (inactive); with 786-0 it was > 100 µM (inactive); with KM-20L2 it was 67 µM (inactive); with SNB-78, > 100 µM (inactive).

For `CCOC(=O)c1c(N)sc2c1C(C(=O)OCC)CCC2` (stereo unspecified), the figures for the GI50 in the experiment with T47D, in the experiment with 786-0 and in the experiment on MDA-MB-231 were 66.5 µM (inactive), > 100 µM (inactive) and > 100 µM (inactive), respectively.

With `Cc1cccc(C(C)C)c1NC(=O)/C(Cc1c([N+](=O)[O-])cccc1[N+](=O)[O-])=N/NC(=O)CC#N`, the GI50 in the experiment on RXF 631, with DLD-1, in the experiment with 786-0, in the experiment with KM-20L2 and in the experiment with HOP-18 was > 100 µM (inactive) each time.

In the case of `Cc1ccc(NC(=O)C(Cc2c[nH]c3ccccc23)NC(=O)Oc2ccccc2)cc1C` (stereo unspecified), the GI50 with MDA-MB-435 is 65.2 µM (inactive); in the experiment with T47D it was 39.5 µM (inactive); in the experiment with MDA-MB-231, > 100 µM (inactive).

With `CCOC(=O)c1c(C)n(-c2ccc(C)cc2)c(=O)c2ccccc2c(=O)c2c(=O)ccc(=O)c1=2`, the GI50 is 15.3 µM (inactive) in the experiment with MDA-MB-435, 20 µM (inactive) with T47D, 31 µM (inactive) in the experiment with 786-0 and 16.1 µM (inactive) in the experiment with MDA-MB-231.

Turning to `CC(C)=CC1(C)/C(=N\O)C(C)(CC(C)C)C(=O)N1O` (stereo unspecified), the GI50 with RXF 631, in the experiment on DLD-1, in the experiment on 786-0, with KM-20L2 and in the experiment on SNB-78 was > 100 µM (inactive) throughout.

As to `COC(=O)/C=C\C(C#N)(C#N)/N=C/c1cccs1`, the GI50 was 5.16 µM (inactive) in the experiment with MDA-MB-435, 2.93 µM (inactive) in the experiment on T47D, 14.2 µM (inactive) in the experiment on 786-0 and 1.46 µM (inactive) in the experiment with MDA-MB-231.

For the molecule `C/C=C/C1=CC(=O)C(O)C1O` (stereo unspecified), the GI50 is 30.4 µM (inactive) with DLD-1, 28.2 µM (inactive) in the experiment with KM-20L2, 12.4 µM (inactive) in the experiment with HOP-18 and 57.8 µM (inactive) in the experiment with SNB-78.

For the molecule `O=C(O)C1=CNC(C(=O)O)=NN1`, the GI50 with RXF 631, in the experiment with DLD-1, in the experiment on 786-0, in the experiment on KM-20L2 and in the experiment on HOP-18 was > 100 µM (inactive) each time.

On to `Fc1ccc2c(c1)SC1=Nc3sc4cc(F)ccc4[n+]3CN12`, for which the GI50 in the experiment on MDA-MB-435 was 39.6 µM (inactive); in the experiment with T47D, 13.7 µM (inactive); with 786-0, 18.3 µM (inactive); in the experiment on MDA-MB-231, 13.9 µM (inactive).

For the molecule `O=C(NC1C=CCC2C(=O)N(c3ccccc3)C(=O)C12)OCc1ccccc1` (stereo unspecified), the GI50 in the experiment with DLD-1, in the experiment with 786-0, with KM-20L2, with HOP-18 and in the experiment with SNB-78 was > 100 µM (inactive) each time.

As for `COC(=O)c1ccc(CN2CCc3c([nH]c4ccccc34)C2CO)o1` (stereo unspecified), the GI50 in the experiment with MDA-MB-435, in the experiment with T47D, in the experiment with 786-0 and with MDA-MB-231 was > 10 µM (inactive) throughout.

On to `OCCCC(O)(c1ccccc1)c1ccccc1`, for which the GI50 with MDA-MB-435 and with 786-0 was > 100 µM (inactive) in each case.

As for `C[C@H](O)C(=O)SC[C@H](NC(=O)CC[C@@H](N)C(=O)O)C(=O)NCC(=O)O`, the GI50 in the experiment with DLD-1 and in the experiment with KM-20L2 was > 100 µM (inactive) throughout.

For `COC(=O)C(C/C=C(\C)c1ccc(Cl)cc1)C(C)=O` (stereo unspecified), the GI50 was 57.1 µM (inactive) in the experiment with DLD-1, 35.9 µM (inactive) in the experiment with KM-20L2, 40.3 µM (inactive) with HOP-18 and > 56.8 µM (inactive) with SNB-78.

Consider `COc1ccc(-c2c3c(nc4nc(SCCc5ccccc5)nc(N)c24)CCCC3)cc1OC`, for which the GI50 with MDA-MB-435, in the experiment on T47D and in the experiment on MDA-MB-231 was > 100 µM (inactive) in each case.

Turning to `CCCCCCCSc1nc2c(C(=O)OCC)ncn2c2ccccc12`, the GI50 in the experiment with KM-20L2 was > 100 µM (inactive).

As for `CC[C@]12C=CCN3CC[C@@]4(c5cc(Br)c(OC)c([N+](=O)[O-])c5N(C)[C@H]4[C@@](O)(C(=O)OC)[C@@H]1OC(C)=O)[C@@H]32`, the GI50 in the experiment on MDA-MB-435 was 35.1 µM (inactive); in the experiment with T47D, 50.4 µM (inactive); in the experiment on 786-0, 94.6 µM (inactive); in the experiment on MDA-MB-231, > 100 µM (inactive).

Turning to `Cc1ccc(S(=O)(=O)N2c3ccccc3[C@H]3CCc4c([nH]c5ccccc45)[C@H]32)cc1`, the GI50 in the experiment with MDA-MB-435 is 48.3 µM (inactive); in the experiment on T47D, > 100 µM (inactive); with MDA-MB-231, 0.65 µM (active).

As to `C=CC(C)C1(CCCOCc2ccccc2)C(=S)N2CCC3(CC24CCCC14)OCCO3` (stereo unspecified), the GI50 in the experiment with DLD-1 was 54.6 µM (inactive); in the experiment on KM-20L2, 62.2 µM (inactive); in the experiment with HOP-18, > 100 µM (inactive); with SNB-78 it was 9.48 µM (inactive).

Turning to `c1ccc2c(c1)CCCC/C2=N/OCC1CO1` (stereo unspecified), the GI50 with DLD-1 is > 100 µM (inactive); in the experiment with KM-20L2 it was > 100 µM (inactive); in the experiment on HOP-18, 34.7 µM (inactive); in the experiment on SNB-78 it was 57.4 µM (inactive).

Consider `Cc1cc2cc3c(C)cc(=O)oc3c(C)c2o1` [TRIOXSALEN], for which the GI50 with MDA-MB-435, in the experiment on T47D, with 786-0 and in the experiment with MDA-MB-231 was > 100 µM (inactive) in each case.

In the case of `C=C1[C@@H]2CCC(C)(C)[C@H]1CCC(=O)[C@@H]2C(=O)OC`, the GI50 with RXF 631, in the experiment with 786-0 and in the experiment on KM-20L2 was > 100 µM (inactive) throughout.

Turning to `O=C(O)CN(CC(=O)O)C(C(=O)O)c1ccccc1` (stereo unspecified), the GI50 in the experiment on MDA-MB-435, with T47D, in the experiment with 786-0 and in the experiment on MDA-MB-231 was > 100 µM (inactive) in each case.

On to `N#CCc1c(F)c(F)c(F)c(F)c1F`, for which the GI50 in the experiment with MDA-MB-435, in the experiment on T47D, with 786-0 and in the experiment with MDA-MB-231 was > 100 µM (inactive) each time.
